Measurements taken from patent publication US10874670B2, “Substituted fused heteroaromatic compounds as kinase inhibitors and the use thereof” (IMPACT THERAPEUTICS, INC., priority 2017, dated 2020).

How the values were obtained:
[1] = test system: human colon cancer cell SW620; assay: MTT assay, growth of SW620 cells, compounds combined with CPT-11; format: cell-based; details: combined with CPT-11 (205 nM medium), 5 days, MTT
Experimental: Inhibitory effects of N,N-dimethyl-3-(4-(1-(tetrahydro-2H-pyran-4-yl)-[1,2,4]triazolo[4,3-a]quinoxalin-8-yl)phenoxy)propan-1-amine and its Analogues Combined with CPT-11 on the Growth of Human Colon Cancer Cell SW620 were Determined by MTT Assay
(§1) SW620 cells were digested by trypsinase, centrifuged at 800 rpm for 5 minutes, the supernatant was discarded, resuspended with fresh medium (RPMI 1640 medium+10% FBS) and counted. The cells were seeded into 96-well cell culture plate with appropriate cell density and incubated overnight in a 37° C. 5% CO2 incubator. The stock solutions of the tested compound and the reference compound AZD0156 were serially diluted to 8 concentrations by DMSO at the ratios of 1:3 and 1:10, respectively, the first concentration was 10 μM or 1 μM, and the last concentration was negative control of DMSO (0 μM, the final concentration of DMSO was 1%). 5 μL of each concentration was added to 120 μL of medium (25 times diluted) and mixed by shaking. The overnight cells were taken and the culture medium was removed, 195 μL of fresh medium containing 205 nM CPT-11 was added to each well, and 5 μL of diluted medium containing the corresponding concentration of the tested sample was added respectively, and the culture plate was then placed in the 5% CO2 cell culture incubator at 37° C. for 5 days. After removing the original solution, 100 pt of fresh serum-free DMEM medium containing MTT (0.5 mg/mL) was added to each well, the culture was continued. After 4 hours, the original solution was removed, 100 μL of DMSO was added into each well, the 96-well plates were shaken away from light for 10 minutes and placed in a multi-function reader to read the absorbance at the wavelength of 552/630/690 nm. GraphPad Prism 6.0 was used to analyze the data. The inhibitory activity of compounds on cell proliferation was plotted based on cell viability and compound concentration. The IC50 value was fitted by a sigmoidal dose response curve equation Y=100/(1+10^(Log C−Log IC50)), where C was the concentration of compound.
Table 3 summarizes the inhibitory effects of compounds combined with CPT-11 on the growth of human colon cancer cell SW620 (IC50).

ATM enzyme (human) = ATM enzyme (human) (Homo sapiens, UniProt Q13315); assay: ATM kinase assay (HTRF, GST-cMyc-p53 substrate); format: biochemical; details: for inhibition at 1 µM / inhibition at 0.01 µM / inhibition at 0.1 µM: 0.5 h, read-out: Inh (%) of ATM kinase
Experimental: In Vitro Inhibition of ATM by N,N-dimethyl-3-(4-(1-(tetrahydro-2H-pyran-4-yl)-[1,2,4]triazolo[4,3-a]quinoxalin-8-yl)phenoxy)propan-1-amine and its Analogues was Determined by ATM Kinase Assay
The reaction was initiated by the addition of a Mg/ATP mixture and incubation for 30 minutes at room temperature, the reaction was quenched by the addition of a stop solution containing EDTA. Finally, the detection buffer containing the d2-labeled anti-GST monoclonal antibody and the europium-labeled anti-phospho p53 (Ser15) antibody was added. The plate was then read in time resolved fluorescence mode and the homogeneous time resolved fluorescence (HTRF) signal was determined according to the equation: HTRF=10000×(Em665nm/Em620nm). Each compound sample was repeated in duplicate. The experiment negative control was all components except of the ATM enzyme and the positive control contained all components. All reactions were quenched by adding EDTA.
ATM kinase inhibition was detected by using the method described above. The curve equation for calculating IC50 value is as follows:
[formula] • wherein, C is the concentration of compound and D is the slope factor.

[2] = test system: human breast cancer cell MDA-MB-468; assay: MTT assay, growth of MDA-MB-468 cells; format: cell-based; details: 7 days, MTT
Experimental: Inhibitory Effects of N,N-dimethyl-3-(4-(1-(tetrahydro-2H-pyran-4-yl)-[1,2,4]triazolo[4,3-a]quinoxalin-8-yl)phenoxy)propan-1-amine and its Analogues on the Growth of Human Breast Cancer Cell MDA-MB-468 were Determined by MTT Assay
as §1, with “MDA-MB-468 cells” for “SW620 cells”, “1:10, respectively:” for “1:10, respectively,”, “was 100” for “was 10”, “medium” for “medium containing 205 nM CPT-11”, “for 7 days (On the fourth day, the medium containing drugs was removed and fresh medium containing drugs was added for continuous cultivation).” for “for 5 days.”, “100 μL” for “100 pt”
Table 4 summarizes the inhibitory effects of compounds on the growth of human breast cancer cell MDA-MB-468 (IC50).

[3] = C 1 μm (final concentration of compound)
[4] = C 0.01 μm (final concentration of compound)
[5] = C 0.1 μm (final concentration of compound)
[6] = Homo sapiens, MDA-MB-468, 168 h

Sequence of ATM enzyme (human) (Q13315 whole entry): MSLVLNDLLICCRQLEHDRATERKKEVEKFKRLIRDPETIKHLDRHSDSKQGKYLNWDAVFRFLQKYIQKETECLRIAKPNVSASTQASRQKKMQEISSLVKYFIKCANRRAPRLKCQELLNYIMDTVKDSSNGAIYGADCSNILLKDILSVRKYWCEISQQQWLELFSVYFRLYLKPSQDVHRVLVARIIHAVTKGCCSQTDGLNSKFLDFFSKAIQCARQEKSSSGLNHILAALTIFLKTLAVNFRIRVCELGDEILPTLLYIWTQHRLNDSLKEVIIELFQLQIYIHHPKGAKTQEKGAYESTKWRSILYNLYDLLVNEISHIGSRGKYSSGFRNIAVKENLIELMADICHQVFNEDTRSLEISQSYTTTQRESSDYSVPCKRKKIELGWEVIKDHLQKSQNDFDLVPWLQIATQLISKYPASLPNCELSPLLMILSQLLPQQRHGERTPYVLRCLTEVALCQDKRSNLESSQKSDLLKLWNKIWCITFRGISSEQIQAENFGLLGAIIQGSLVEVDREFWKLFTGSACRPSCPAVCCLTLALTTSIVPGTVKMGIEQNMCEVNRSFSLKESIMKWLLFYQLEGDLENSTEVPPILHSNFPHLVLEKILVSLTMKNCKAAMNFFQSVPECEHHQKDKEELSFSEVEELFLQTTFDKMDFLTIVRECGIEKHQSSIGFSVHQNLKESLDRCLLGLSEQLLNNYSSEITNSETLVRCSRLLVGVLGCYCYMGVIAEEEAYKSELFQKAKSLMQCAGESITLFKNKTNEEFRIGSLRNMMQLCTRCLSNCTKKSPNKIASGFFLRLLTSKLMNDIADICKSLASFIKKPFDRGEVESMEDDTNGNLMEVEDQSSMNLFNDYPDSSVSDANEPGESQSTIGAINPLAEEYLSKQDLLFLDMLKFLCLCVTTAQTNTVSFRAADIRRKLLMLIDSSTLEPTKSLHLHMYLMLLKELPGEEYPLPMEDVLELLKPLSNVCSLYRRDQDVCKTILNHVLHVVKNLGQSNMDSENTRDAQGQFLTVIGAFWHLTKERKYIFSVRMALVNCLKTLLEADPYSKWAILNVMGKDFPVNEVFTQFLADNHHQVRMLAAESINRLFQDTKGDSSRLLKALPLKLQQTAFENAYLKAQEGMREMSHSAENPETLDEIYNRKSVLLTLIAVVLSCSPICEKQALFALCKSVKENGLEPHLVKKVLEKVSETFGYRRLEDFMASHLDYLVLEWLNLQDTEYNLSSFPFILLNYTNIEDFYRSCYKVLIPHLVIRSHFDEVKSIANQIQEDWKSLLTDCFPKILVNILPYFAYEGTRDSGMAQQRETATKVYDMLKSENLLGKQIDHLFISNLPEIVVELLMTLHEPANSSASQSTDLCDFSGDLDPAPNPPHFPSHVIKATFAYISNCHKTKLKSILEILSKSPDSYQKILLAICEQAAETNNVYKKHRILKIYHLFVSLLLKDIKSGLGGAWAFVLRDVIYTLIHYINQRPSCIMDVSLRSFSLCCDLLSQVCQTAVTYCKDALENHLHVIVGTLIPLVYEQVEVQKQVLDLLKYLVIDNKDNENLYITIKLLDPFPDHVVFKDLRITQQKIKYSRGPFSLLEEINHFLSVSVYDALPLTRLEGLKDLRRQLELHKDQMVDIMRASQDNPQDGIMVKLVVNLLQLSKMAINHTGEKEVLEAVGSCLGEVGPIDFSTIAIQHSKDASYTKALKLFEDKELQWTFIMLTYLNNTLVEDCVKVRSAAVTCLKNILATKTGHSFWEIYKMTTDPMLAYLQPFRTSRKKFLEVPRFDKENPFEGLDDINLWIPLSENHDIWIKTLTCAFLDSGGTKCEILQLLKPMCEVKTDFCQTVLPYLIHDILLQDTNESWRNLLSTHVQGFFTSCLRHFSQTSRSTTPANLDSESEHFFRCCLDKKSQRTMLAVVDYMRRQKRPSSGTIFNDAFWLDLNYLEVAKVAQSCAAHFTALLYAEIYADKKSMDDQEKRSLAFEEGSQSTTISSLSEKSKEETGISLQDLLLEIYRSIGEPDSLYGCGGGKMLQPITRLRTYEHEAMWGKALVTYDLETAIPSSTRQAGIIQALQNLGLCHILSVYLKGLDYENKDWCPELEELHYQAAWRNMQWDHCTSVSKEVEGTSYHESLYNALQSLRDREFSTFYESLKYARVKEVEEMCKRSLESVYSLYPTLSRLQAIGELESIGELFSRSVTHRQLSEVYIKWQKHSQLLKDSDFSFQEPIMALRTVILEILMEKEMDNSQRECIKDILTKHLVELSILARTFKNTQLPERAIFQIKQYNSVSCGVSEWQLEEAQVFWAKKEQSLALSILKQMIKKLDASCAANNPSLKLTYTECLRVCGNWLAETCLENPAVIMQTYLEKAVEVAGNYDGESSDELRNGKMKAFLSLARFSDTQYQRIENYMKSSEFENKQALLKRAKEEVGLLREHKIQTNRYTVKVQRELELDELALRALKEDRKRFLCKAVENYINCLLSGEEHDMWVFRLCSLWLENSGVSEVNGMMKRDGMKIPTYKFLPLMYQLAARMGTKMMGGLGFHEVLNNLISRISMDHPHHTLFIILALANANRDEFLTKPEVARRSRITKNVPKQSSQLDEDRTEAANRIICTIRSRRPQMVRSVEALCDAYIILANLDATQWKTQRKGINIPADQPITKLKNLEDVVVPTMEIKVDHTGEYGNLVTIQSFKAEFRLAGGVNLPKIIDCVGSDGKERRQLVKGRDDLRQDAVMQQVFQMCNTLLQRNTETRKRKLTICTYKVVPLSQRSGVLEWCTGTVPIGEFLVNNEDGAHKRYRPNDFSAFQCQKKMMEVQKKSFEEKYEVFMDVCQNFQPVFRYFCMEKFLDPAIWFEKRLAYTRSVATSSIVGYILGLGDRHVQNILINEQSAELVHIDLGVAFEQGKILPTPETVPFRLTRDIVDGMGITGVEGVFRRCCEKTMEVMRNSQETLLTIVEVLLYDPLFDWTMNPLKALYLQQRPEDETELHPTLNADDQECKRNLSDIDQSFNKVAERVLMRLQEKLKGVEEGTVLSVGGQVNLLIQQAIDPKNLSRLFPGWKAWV

SMILES | IC50 ([1]; Homo sapiens, SW-620, 120 h) | inhibition at 1 µM (ATM enzyme (human); [3]) | inhibition at 0.01 µM (ATM enzyme (human); [4]) | inhibition at 0.1 µM (ATM enzyme (human); [5]) | IC50 [2, 6] | further results
C[N+](C)(C)CCCNc1ccc(-c2ccc3ncc4nnc(C5CCOCC5)n4c3c2)cc1 [Example 40, N,N,N-trimethyl-3-((4-(1-(tetrahydro-2H-pyran-4-yl)-[1,2,4]triazolo[4,3-a]quinoxalin-8-yl)phenyl)amino)propan-1-aminium] |  |  |  |  |  | IC50 [1]: > 100 µM; Inh (%) of ATM kinase (ATM enzyme (human); [4]): 33%; Inh (%) of ATM kinase (ATM enzyme (human); [5]): 81%; Inh (%) of ATM kinase (ATM enzyme (human); [3]): 99%
CN(C)CCCOc1ccc(-c2cc3c(cn2)ncc2nnc(C4CCOCC4)n23)cc1 [Example 69, N,N-dimethyl-3-(4-(1-(tetrahydro-2H-pyran-4-yl)pyrido[3,4-e][1,2,4]triazolo[4,3-a]pyrazin-8-yl)phenoxy)propan-1-amine] |  |  |  |  |  | IC50 [2]: > 10 µM
CN(C)C1CCN(c2ccc(-c3ccc4ncc5nnc(CN6CCOCC6)n5c4n3)cc2)CC1 [Example 78, N,N-dimethyl-1-(4-(9-(morpholinomethyl)pyrido[3,2-e][1,2,4]triazolo[4,3-a]pyrazin-2-yl)phenyl)piperidin-4-amine] | 0.664 µM | 98% | 67% | 94% |  | 
CN(C)CCCOc1ccc(-c2ccc3ncc4nnc(CN5CCOCC5)n4c3n2)cc1 [Example 79, N,N-dimethyl-3-(4-(9-(morpholinomethyl)pyrido[3,2-e][1,2,4]triazolo[4,3-a]pyrazin-2-yl)phenoxy)propan-1-amine] | 1.98 µM | 94% | 21% | 62% |  | 
C[C@@H]1CN(c2nnc3cnc4ccc(-c5ccc(OCCCN(C)C)cc5)nc4n23)C[C@H](C)N1C [Example 80, N,N-dimethyl-3-(4-(9-((3S,5R)-3,4,5-trimethylpiperazin-1-yl)pyrido[3,2-e][1,2,4]triazolo[4,3-a]pyrazin-2-yl)phenoxy)propan-1-amine] | 0.164 µM |  |  |  | 0.271 µM | 
C[C@@H]1CN(c2nnc3cnc4ccc(-c5ccc(OCCCN(C)C)c(F)c5)nc4n23)C[C@H](C)N1C [Example 81, 3-(2-fluoro-4-(9-((3S,5R)-3,4,5-trimethylpiperazin-1-yl)pyrido[3,2-e][1,2,4]triazolo[4,3-a]pyrazin-2-yl)phenoxy)-N,N-dimethylpropan-1-amine] | 0.138 µM |  |  |  | 0.201 µM | 
C[C@@H]1CN(c2nnc3cnc4ccc(-c5ccc(OCCCN(C)C)c(Cl)c5)nc4n23)C[C@H](C)N1C [Example 82, 3-(2-chloro-4-(9-((3S,5R)-3,4,5-trimethylpiperazin-1-yl)pyrido[3,2-e][1,2,4]triazolo[4,3-a]pyrazin-2-yl)phenoxy)-N,N-dimethylpropan-1-amine] | 0.189 µM |  |  |  | 0.201 µM | 
C[C@@H]1CN(c2nnc3cnc4ccc(-c5ccc(OCCCN(C)C)c(C(F)(F)F)c5)nc4n23)C[C@H](C)N1C [Example 83, N,N-dimethyl-3-(2-(trifluoromethyl)-4-(9-((3S,5R)-3,4,5-trimethylpiperazin-1-yl)pyrido[3,2-e][1,2,4]triazolo[4,3-a]pyrazin-2-yl)phenoxy)propan-1-amine] | 0.148 µM |  |  |  | 0.0734 µM | 
C[C@@H]1CN(c2nnc3cnc4ccc(-c5ccc(N6CCC(N(C)C)CC6)cc5)nc4n23)C[C@H](C)N1C [Example 84, N,N-dimethyl-1-(4-(9-((3S,5R)-3,4,5-trimethylpiperazin-1-yl)pyrido[3,2-e][1,2,4]triazolo[4,3-a]pyrazin-2-yl)phenyl)piperidin-4-amine] | 0.0705 µM |  |  |  | 0.246 µM | 
C[C@@H]1CN(c2nnc3cnc4ccc(-c5ccc(N6CCC(N(C)C)CC6)c(F)c5)nc4n23)C[C@H](C)N1C [Example 85, 1-(2-fluoro-4-(9-((3S,5R)-3,4,5-trimethylpiperazin-1-yl)pyrido[3,2-e][1,2,4]triazolo[4,3-a]pyrazin-2-yl)phenyl)-N,N-dimethylpiperidin-4-amine] | 0.0413 µM |  |  |  | 0.0222 µM | 

Second part, led by results:

IC50 ([1]; Homo sapiens, SW-620, 120 h) | inhibition at 1 µM (ATM enzyme (human); [3]) | inhibition at 0.01 µM (ATM enzyme (human); [4]) | inhibition at 0.1 µM (ATM enzyme (human); [5]) | IC50 [2, 6] | SMILES | further results
> 100 µM | 62% |  |  |  | c1ccc(-c2ccc3ncc4nnc(C5CCOCC5)n4c3c2)cc1 [Example 39, 8-phenyl-1-(tetrahydro-2H-pyran-4-yl)-[1,2,4]triazolo[4,3-a]quinoxaline] | 
0.456 µM | 99% | 33% | 81% |  | NC1CCN(c2ccc(-c3ccc4ncc5nnc(C6CCOCC6)n5c4c3)cc2)CC1 [Example 41, 1-(4-(1-(tetrahydro-2H-pyran-4-yl)-[1,2,4]triazolo[4,3-a]quinoxalin-8-yl)phenyl)piperidin-4-amine] | 
0.211 µM | 99% | 68% | 90% |  | CNC1CCN(c2ccc(-c3ccc4ncc5nnc(C6CCOCC6)n5c4c3)cc2)CC1 [Example 42, N-methyl-1-(4-(1-(tetrahydro-2H-pyran-4-yl)-[1,2,4]triazolo[4,3-a]quinoxalin-8-yl)phenyl)piperidin-4-amine] | 
0.357 µM | 100% | 47% | 89% |  | CCNC1CCN(c2ccc(-c3ccc4ncc5nnc(C6CCOCC6)n5c4c3)cc2)CC1 [Example 43, N-ethyl-1-(4-(1-(tetrahydro-2H-pyran-4-yl)-[1,2,4]triazolo[4,3-a]quinoxalin-8-yl)phenyl)piperidin-4-amine] | 
0.0144 µM |  |  |  | 0.00661 µM | C[C@@H]1CN(c2nnc3cnc4ccc(-c5ccc(N6CCC(N(C)C)CC6)c(F)c5)cc4n23)C[C@H](C)N1C [Example 59, 1-(2-fluoro-4-(1-((3S,5R)-3,4,5-trimethylpiperazin-1-yl)-[1,2,4]triazolo[4,3-a]quinoxalin-8-yl)phenyl)-N,N-dimethylpiperidin-4-amine] | 
0.402 µM | 100% | 37% | 80% |  | CN(C)C1CCN(c2ccc(-c3ccc4ncc5nnc(CN6CCOCC6)n5c4c3)cc2)CC1 [Example 65, N,N-dimethyl-1-(4-(1-(morpholinomethyl)-[1,2,4]triazolo[4,3-a]quinoxalin-8-yl)phenyl)piperidin-4-amine] | 
